Structures can show the parent of a compound that is named as a salt. Where two headings read alike, the source gives them in different places.
Key:
[1] = target: Enterobacter cloacae P99 (class C) serine β-lactamase (Enterobacter cloacae, UniProt P05364); experiment: biochemical
Protocol: (§1) Representative compounds of the invention were evaluated as inhibitors of two serine β-lactamases: Enterobacter cloacae P99 (class C), TEM-1 (class A), as well as two class B enzymes: the L1 metallo-β-lactamse derived from Stenotrophomonas maltophilia) and the metallo-β-lactamase derived from the Bacillus cereus microorganism. The IC50 value of each compound was determined as follows. Assay method involves 4 min incubation of a solution of inhibitor and enzyme (0.1 to 1 μM in enzyme), followed by transfer of an aliquot into a dilute solution of the substrate nitrocefin. Hydrolysis is monitored spectrophotometrically at 480 nm for 1 min.

[2] = target: L1 metallo-β-lactamase (class B) (Stenotrophomonas maltophilia, UniProt P52700); experiment: Inhibition of L1 metallo-β-lactamase (nitrocefin hydrolysis); type: biochemical
L1 metallo-β-lactamase (class B), sequence (P52700 34-290): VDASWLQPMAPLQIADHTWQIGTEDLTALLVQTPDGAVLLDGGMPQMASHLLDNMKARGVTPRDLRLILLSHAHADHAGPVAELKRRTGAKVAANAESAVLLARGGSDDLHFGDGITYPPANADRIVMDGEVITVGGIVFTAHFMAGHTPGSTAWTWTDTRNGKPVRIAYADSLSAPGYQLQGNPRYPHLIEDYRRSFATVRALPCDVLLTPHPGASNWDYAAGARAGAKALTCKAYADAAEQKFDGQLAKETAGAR
Protocol: as §1, with “min. The rate is constant throughout this period. Error is ±10%, based on multiple experiments.” for “min.”

[3] = target: BC1 metallo-β-lactamase (class B) (Bacillus cereus, UniProt P04190); experiment: biochemical
BC1 metallo-β-lactamase (class B), sequence (P04190 31-257): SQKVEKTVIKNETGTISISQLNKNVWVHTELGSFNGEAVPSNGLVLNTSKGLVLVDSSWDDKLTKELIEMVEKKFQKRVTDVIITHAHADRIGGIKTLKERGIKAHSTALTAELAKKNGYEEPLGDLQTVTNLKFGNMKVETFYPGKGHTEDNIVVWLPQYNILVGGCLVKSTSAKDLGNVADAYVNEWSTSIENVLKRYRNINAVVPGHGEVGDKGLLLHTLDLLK
Protocol: as §1, with “min. The rate is constant throughout this period. Error is ±10%, based on multiple experiments.” for “min.”

class B β-lactamases = experiment: Inhibition of class B β-lactamases, summary in words; type: biochemical; conditions: summary of Table 1 in words
Protocol: as §1, with “min. The rate is constant throughout this period. Error is ±10%, based on multiple experiments.” for “min.”

[4] = target: TEM-1 (class A) serine β-lactamase (Escherichia coli, UniProt P62593); experiment: Inhibition of TEM-1 β-lactamase (nitrocefin hydrolysis); type: biochemical; conditions: 4 min incubation of inhibitor and enzyme (0.1 to 1 μM), substrate nitrocefin, 480 nm; error ±10%
TEM-1 (class A) serine β-lactamase, sequence (P62593 24-286 limits assumed): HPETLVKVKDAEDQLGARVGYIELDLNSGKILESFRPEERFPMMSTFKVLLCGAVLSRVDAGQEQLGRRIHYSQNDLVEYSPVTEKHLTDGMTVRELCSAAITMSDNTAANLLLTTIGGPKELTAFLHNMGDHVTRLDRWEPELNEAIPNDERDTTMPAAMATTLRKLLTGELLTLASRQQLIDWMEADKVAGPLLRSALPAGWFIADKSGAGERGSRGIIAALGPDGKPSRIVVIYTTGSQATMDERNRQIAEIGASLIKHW
Protocol: as §1

[5] = system: serine and metallo-β-lactamases; experiment: Inhibition of serine and metallo-β-lactamases, summary in words; type: biochemical; conditions: summary of Table 1 in words
Protocol: as §1

[6] = 4 min incubation of inhibitor and enzyme (0.1 to 1 μM), substrate nitrocefin, 480 nm, error ±10%, read-out: Inhibition IC50, P99 (Class C) (Serine)
[7] = Inhibition IC50, P99 (Class C) (Serine), 4 min incubation of inhibitor and enzyme (0.1 to 1 μM), substrate nitrocefin, 480 nm, error ±10%
[8] = 4 min incubation of inhibitor and enzyme (0.1 to 1 μM), substrate nitrocefin, 480 nm, error ±10%, read-out: Inhibition IC50, L1 (Class B) (Metallo)
[9] = read-out: Inhibition IC50, BC1 (Class B) (Metallo), 4 min incubation of inhibitor and enzyme (0.1 to 1 μM), substrate nitrocefin, 480 nm, error ±10%

Enterobacter cloacae P99 (class C) serine β-lactamase, sequence (P05364 21-381): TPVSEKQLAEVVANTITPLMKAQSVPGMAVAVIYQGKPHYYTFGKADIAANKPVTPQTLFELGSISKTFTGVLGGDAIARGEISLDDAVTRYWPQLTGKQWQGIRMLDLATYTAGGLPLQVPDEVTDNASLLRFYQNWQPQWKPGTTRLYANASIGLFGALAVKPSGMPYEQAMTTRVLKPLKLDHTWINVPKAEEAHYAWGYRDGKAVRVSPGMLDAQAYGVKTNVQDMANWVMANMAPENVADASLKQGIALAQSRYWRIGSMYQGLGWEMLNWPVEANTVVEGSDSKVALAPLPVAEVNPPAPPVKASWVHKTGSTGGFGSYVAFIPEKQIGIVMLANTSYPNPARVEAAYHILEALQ

Row | Compound | IC50 [1, 6] | IC50 [2] | IC50 [3] | ability to inhibit the class B β-lactamases (class B β-lactamases) | IC50 [4] | IC50 [1, 7] | IC50 [2, 8] | IC50 [3, 9] | IC50 ([2]; read-out: Inhibition IC50, L1 (Class B) (Metallo), 4 min incubation of inhibitor and enzyme (0.1 to 1 μM), substrate nitrocefin, 480 nm, error ±10%) | broad spectrum inhibitory activity [5] | IC50 [1]
1 | CC1(C)[C@H](C(=O)O)N2C(=O)C(CO)C2S1(=O)=O (single isomer, unassigned) [Compound 15, Sodium Salt of 6β-(hydroxymethyl)penicillinate-1,1-dioxide, reference compound] | 3.9 µM | > 2000 µM | > 2000 µM | none of the latter, previously known, 6-(hydroxymethyl)penicillinates possess such ability |  |  |  |  |  |  | 
2 | CC1(C)S[C@@H]2C(CO)C(=O)N2[C@H]1C(=O)O (single isomer, unassigned) [Compound 16, Sodium Salt of 6β-(hydroxymethyl)penicillinate, reference compound] |  |  |  | none of the latter, previously known, 6-(hydroxymethyl)penicillinates possess such ability | 752 µM | 409 µM | > 2000 µM | > 2000 µM |  |  | 
3 | CC1(C)[C@H](C(=O)O)N2C(=O)C(CO)C2S1(=O)=O (single isomer, unassigned) [Compound 27, Sodium Salt of 6α-(hydroxymethyl)penicillinate-1,1-dioxide, reference compound] | 10 µM |  |  | none of the latter, previously known, 6-(hydroxymethyl)penicillinates possess such ability |  |  |  | > 2000 µM | > 2000 µM |  | 
4 | CC1(C)S[C@@H]2C(CO)C(=O)N2[C@H]1C(=O)O (single isomer, unassigned) [Compound 28, Sodium Salt of 6α-(hydroxymethyl)penicillinate, reference compound] |  | > 2000 µM | > 2000 µM | none of the latter, previously known, 6-(hydroxymethyl)penicillinates possess such ability | 275 µM | 96.2 µM |  |  |  |  | 
5 | CC1(C)S[C@@H]2C(CS)C(=O)N2[C@H]1C(=O)[O-].[Na+] (stereo partly drawn) [Compound 9, Sodium Salt of 6β-(mercaptomethyl)penicillanic acid] | 0.1 µM |  | 12.3 µM | possess the ability to inhibit the class B β-lactamases | 601 µM |  | 72.2 µM |  |  |  | 
6 | CC1(C)[C@H](C(=O)[O-])N2C(=O)[C@@H](CS)[C@H]2S1(=O)=O.[Na+] [Compound 13, Sodium Salt of 6β-(mercaptomethyl)penicallin acid 1,1-dioxide] |  |  | 64 µM | possess the ability to inhibit the class B β-lactamases | 6.8 µM | 10.5 µM | 0.13 µM |  |  | excellent broad spectrum inhibitory activity | 
7 | CC1(C)S[C@@H]2[C@@H](CS)C(=O)N2[C@H]1C(=O)[O-].[Na+] [Compound 21, Sodium Salt of 6α-(mercaptomethyl)penicillinate] | 3.75 µM |  | 7.6 µM | possess the ability to inhibit the class B β-lactamases | 648 µM |  | 81.4 µM |  |  |  | 
8 | CC1(C)[C@H](C(=O)[O-])N2C(=O)[C@H](CS)[C@H]2S1(=O)=O.[Na+] [Compound 25, Sodium Salt of 6α-(mercaptomethyl)penicallin acid 1,1-dioxide] |  |  | 770 µM | possess the ability to inhibit the class B β-lactamases | 51.7 µM |  | 0.82 µM |  |  |  | 7.5 µM
9 | C[C@]1(Cn2ccnn2)[C@H](C(=O)O)N2C(=O)C[C@H]2S1(=O)=O [Tazobactam] |  |  | > 2000 µM |  |  |  | > 2000 µM |  |  |  | 
